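Briefly, cells in 96-well plates were exposed to five compound concentrations for 48 h, and endpoints were estimated by linear interpolation. At the GI50, growth is halved. At the TGI there is no net growth.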 Where a SMILES comes first, the peptide text is derived from it. Bridges are numbered along the chain shown (N, C = ends). [ ]: non-standard residue; d: D form. The star is where a group is joined. Phe(3,5-F2) = N[C@@H](Cc1cc(F)cc(F)c1)C(=O)O; Pro(4R-Me) = C[C@H]1CN[C@H](C(=O)O)C1; aThr = C[C@H](O)[C@H](N)C(=O)O; Pip = O=C(O)[C@@H]1CCCCN1; X7 = CCC/C=C/C=C/C(=O)*
Legend:
Assay in all cases: growth of human tumour cells (NCI), 48 h
SW-620 colon = test system: SW-620 colon
MOLT-4 leukemia = test system: MOLT-4 leukemia
MDA-MB-231 breast = test system: MDA-MB-231 breast
SNB-19 CNS = test system: SNB-19 CNS
HT29 colon = test system: HT29 colon
SNB-75 CNS = test system: SNB-75 CNS
NCI-H226 lung = test system: NCI-H226 lung
SF-539 CNS = test system: SF-539 CNS
SK-MEL-28 melanoma = test system: SK-MEL-28 melanoma
M14 melanoma = test system: M14 melanoma
K-562 leukemia = test system: K-562 leukemia
786-0 renal = test system: 786-0 renal
CCRF-CEM leukemia = test system: CCRF-CEM leukemia
MCF7 breast = test system: MCF7 breast
HL-60(TB) leukemia = test system: HL-60(TB) leukemia
HCT-116 colon = test system: HCT-116 colon
CAKI-1 renal = test system: CAKI-1 renal
OVCAR-5 ovarian = test system: OVCAR-5 ovarian
A549 NSCLC = test system: A549 NSCLC
UO-31 renal = test system: UO-31 renal
TK-10 renal = test system: TK-10 renal
HOP-62 NSCLC = test system: HOP-62 NSCLC
OVCAR-4 ovarian = test system: OVCAR-4 ovarian
T-47D breast = test system: T-47D breast
SF-295 CNS = test system: SF-295 CNS
RPMI-8226 leukemia = test system: RPMI-8226 leukemia
ACHN renal = test system: ACHN renal
IGROV1 ovarian = test system: IGROV1 ovarian
SK-MEL-2 melanoma = test system: SK-MEL-2 melanoma
OVCAR-8 ovarian = test system: OVCAR-8 ovarian
U251 CNS = test system: U251 CNS
MALME-3M melanoma = test system: MALME-3M melanoma
RXF 393 renal = test system: RXF 393 renal
SR leukemia = test system: SR leukemia
NCI-H522 lung = test system: NCI-H522 lung
HCC-2998 colon = test system: HCC-2998 colon
UACC-257 melanoma = test system: UACC-257 melanoma
SN12C renal = test system: SN12C renal
HS 578T breast = test system: HS 578T breast
SF-268 CNS = test system: SF-268 CNS
UACC-62 melanoma = test system: UACC-62 melanoma
BT-549 breast = test system: BT-549 breast
EKVX NSCLC = test system: EKVX NSCLC
KM12 colon = test system: KM12 colon
HCT-15 colon = test system: HCT-15 colon
NCI/ADR-RES ovarian = test system: NCI/ADR-RES ovarian
PC-3 prostate = test system: PC-3 prostate
OVCAR-3 ovarian = test system: OVCAR-3 ovarian
DU-145 prostate = test system: DU-145 prostate
COLO 205 colon = test system: COLO 205 colon
SK-MEL-5 melanoma = test system: SK-MEL-5 melanoma
LOX IMVI melanoma = test system: LOX IMVI melanoma
NCI-H460 lung = test system: NCI-H460 lung
NCI-H23 lung = test system: NCI-H23 lung
SK-OV-3 ovarian = test system: SK-OV-3 ovarian
HOP-92 NSCLC = test system: HOP-92 NSCLC
A498 renal = test system: A498 renal
MDA-MB-435 = test system: MDA-MB-435

CCC/C=C/C=C/C(=O)N[C@@H](Cc1cc(F)cc(F)c1)C(=O)N[C@@H]1C(=O)N2CCC[C@H]2C(=O)N2CCCC[C@H]2C(=O)N[C@@H](C)C(=O)N2C[C@H](C)C[C@H]2C(=O)O[C@H]1C (X7-[Phe(3,5-F2)][aThr]P[Pip]A[Pro(4R-Me)]; ester 2-C)
GI50 (SW-620 colon): 704 nM | TGI (SW-620 colon): > 46100 nM | GI50 (MOLT-4 leukemia): 1110 nM | TGI (MOLT-4 leukemia): > 44000 nM | GI50 (MDA-MB-231 breast): 409 nM | TGI (MDA-MB-231 breast): 3360 nM | GI50 (SNB-19 CNS): 405 nM | TGI (SNB-19 CNS): 35200 nM | GI50 (HT29 colon): 586 nM | TGI (HT29 colon): 4160 nM | GI50 (SNB-75 CNS): 313 nM | TGI (SNB-75 CNS): 12700 nM | GI50 (NCI-H226 lung): 547 nM | TGI (NCI-H226 lung): 7970 nM | GI50 (SF-539 CNS): 744 nM | TGI (SF-539 CNS): 13500 nM | GI50 (SK-MEL-28 melanoma): 987 nM | TGI (SK-MEL-28 melanoma): 14100 nM | GI50 (M14 melanoma): 461 nM | TGI (M14 melanoma): 5230 nM | GI50 (K-562 leukemia): 402 nM | TGI (K-562 leukemia): > 100000 nM | GI50 (786-0 renal): 842 nM | TGI (786-0 renal): 31000 nM | GI50 (CCRF-CEM leukemia): 411 nM | TGI (CCRF-CEM leukemia): 14500 nM | GI50 (MCF7 breast): 354 nM | TGI (MCF7 breast): 13600 nM | GI50 (HL-60(TB) leukemia): 404 nM | TGI (HL-60(TB) leukemia): 5830 nM | GI50 (HCT-116 colon): 420 nM | TGI (HCT-116 colon): 11400 nM | GI50 (CAKI-1 renal): 415 nM | TGI (CAKI-1 renal): 12500 nM | GI50 (OVCAR-5 ovarian): 583 nM | TGI (OVCAR-5 ovarian): 6130 nM | GI50 (A549 NSCLC): 506 nM | TGI (A549 NSCLC): > 58500 nM | GI50 (UO-31 renal): 1080 nM | TGI (UO-31 renal): 27500 nM | GI50 (TK-10 renal): 1050 nM | TGI (TK-10 renal): 43700 nM | GI50 (HOP-62 NSCLC): 516 nM | TGI (HOP-62 NSCLC): 16900 nM | GI50 (OVCAR-4 ovarian): 395 nM | TGI (OVCAR-4 ovarian): 19300 nM | GI50 (T-47D breast): 453 nM | TGI (T-47D breast): 13900 nM | GI50 (SF-295 CNS): 358 nM | TGI (SF-295 CNS): 2030 nM | GI50 (RPMI-8226 leukemia): 339 nM | TGI (RPMI-8226 leukemia): 4760 nM | GI50 (ACHN renal): 1120 nM | TGI (ACHN renal): 28700 nM | GI50 (IGROV1 ovarian): 1780 nM | TGI (IGROV1 ovarian): 23700 nM | GI50 (SK-MEL-2 melanoma): 422 nM | TGI (SK-MEL-2 melanoma): 5100 nM | GI50 (OVCAR-8 ovarian): 414 nM | TGI (OVCAR-8 ovarian): > 46800 nM | GI50 (U251 CNS): 451 nM | TGI (U251 CNS): 16500 nM | GI50 (MALME-3M melanoma): 1010 nM | TGI (MALME-3M melanoma): 14000 nM | GI50 (RXF 393 renal): 1500 nM | TGI (RXF 393 renal): 8290 nM | GI50 (SR leukemia): 892 nM | TGI (SR leukemia): 26400 nM | GI50 (NCI-H522 lung): 462 nM | TGI (NCI-H522 lung): 13000 nM | GI50 (HCC-2998 colon): 463 nM | TGI (HCC-2998 colon): 4930 nM | GI50 (UACC-257 melanoma): 356 nM | TGI (UACC-257 melanoma): 4160 nM | GI50 (SN12C renal): 419 nM | TGI (SN12C renal): 15500 nM | GI50 (HS 578T breast): 594 nM | TGI (HS 578T breast): 17400 nM | GI50 (SF-268 CNS): 957 nM | TGI (SF-268 CNS): > 46400 nM | GI50 (UACC-62 melanoma): 522 nM | TGI (UACC-62 melanoma): 6370 nM | GI50 (BT-549 breast): 370 nM | TGI (BT-549 breast): 3400 nM | GI50 (EKVX NSCLC): 491 nM | TGI (EKVX NSCLC): 26200 nM | GI50 (KM12 colon): 1810 nM | TGI (KM12 colon): 29000 nM | GI50 (HCT-15 colon): 482 nM | TGI (HCT-15 colon): 11000 nM | GI50 (NCI/ADR-RES ovarian): 2170 nM | TGI (NCI/ADR-RES ovarian): 16100 nM | GI50 (PC-3 prostate): 367 nM | TGI (PC-3 prostate): 17200 nM | GI50 (OVCAR-3 ovarian): 596 nM | TGI (OVCAR-3 ovarian): 17100 nM | GI50 (DU-145 prostate): 619 nM | TGI (DU-145 prostate): > 66700 nM | GI50 (COLO 205 colon): 286 nM | TGI (COLO 205 colon): 850 nM | GI50 (SK-MEL-5 melanoma): 509 nM | TGI (SK-MEL-5 melanoma): 3310 nM | GI50 (LOX IMVI melanoma): 433 nM | TGI (LOX IMVI melanoma): 12800 nM | GI50 (NCI-H460 lung): 500 nM | TGI (NCI-H460 lung): 14100 nM | GI50 (NCI-H23 lung): 389 nM | TGI (NCI-H23 lung): 13400 nM | GI50 (SK-OV-3 ovarian): 499 nM | TGI (SK-OV-3 ovarian): 12800 nM | GI50 (HOP-92 NSCLC): 313 nM | TGI (HOP-92 NSCLC): 3740 nM | GI50 (A498 renal): 2430 nM | TGI (A498 renal): 28400 nM | GI50 (MDA-MB-435): 412 nM | TGI (MDA-MB-435): 5710 nM

Source: PubChem BioAssay (NCI)
